Laboratory results as given in US10981872B1, “Di(2-aryl hydrozonopropanal) arene derivatives” (King Abdulaziz University, priority 2020, dated 2021).
Where two headings read alike, the source gives them in different places.

Columns and labels:
[1] = system: human colon carcinoma HCT-116 cells; test: MTT cell viability assay, HCT-116; assay type: cell-based
Method: (§1) Human alveolar basal epithelial cell line (A-549) and human colon carcinoma (HCT-116), purchased from ATCC, USA, were used to evaluate the anticancer properties of the compounds. Cells were routinely cultured in RPMI (Roswell Park Memorial Institute Medium), except HCT-116 cells which were cultured in McCoy's medium. All media were supplemented with 10% fetal bovine serum (FBS), 2 mM L-glutamine, 100 units/ml penicillin G sodium, 100 units/ml streptomycin sulphate, and 250 ng/ml amphotericin B. Cells were maintained at sub-confluency at 37° C. in humidified air containing 5% CO2. For sub-culturing, monolayer cells were harvested after trypsin/EDTA treatment at 37° C. Cells were used when confluence had reached 75%. Tested samples were dissolved in dimethyl sulphoxide (DMSO), and then diluted in the assay to begin with the indicated concentration. All cell culture material was obtained from Cambrex BioScience (Copenhagen, Denmark). All chemicals were from Sigma/Aldrich, USA, unless otherwise indicated. All experiments were repeated three times, unless otherwise indicated.
Cytotoxicity of tested samples was measured against different cancer cells using the MTT Cell Viability Assay. The 3-[4,5-dimethylthiazole-2-yl]-2,5-diphenyltetrazolium bromide (MTT) assay is based on the ability of an active mitochondrial dehydrogenase enzyme of living cells to cleave the tetrazolium rings of the yellow MTT and form dark blue insoluble formazan crystals which are largely impermeable to cell membranes, resulting in its accumulation within healthy cells. Dissolution of the cells results in the liberation of crystals, which are then solubilized. The number of viable cells is directly proportional to the level of soluble formazan dark blue color. The extent of the reduction of MTT was quantified by measuring the absorbance at 570 nm.
MTT solution: 5 mg/ml of MTT in 0.9% NaCl.
Acidified isopropanol: 0.04 N HCl in absolute isopropanol.
Cells (0.5×10^5 cells/well), in serum-free media, were plated in a flat bottom 96-well microplate, and treated with 20 μl of different concentrations of the tested samples for 48 h at 37° C., in a humidified 5% CO2 atmosphere. After incubation, media was removed and 40 μl MTT solution/well were added and the cells were incubated for an additional 4 h. MTT crystals were solubilized by adding 180 μl of acidified isopropanol/well and plates were kept at room temperature, followed by photometric determination of the absorbance at 570 nm using a microplate ELISA reader. Triplicate repeats were performed for each concentration and the average was calculated. Data were expressed as the percentage of relative viability compared with the untreated cells compared with the vehicle control, with cytotoxicity indicated by <100% relative viability
The percentage of relative viability was calculated using the following equation: [Absorbance of treated cells/Absorbance of control cells)]×100 Then the half maximal inhibitory concentration (IC50) was calculated from the equation of the concentration vs % of viability curve. Results and Discussion

[2] = MTT cell viability assay, A-549; assay type: cell-based, human; conditions: compared to the tumor cell line HCT116
Method: as §1, with “Tested samples were dissolved in dimethyl sulphoxide (DMSO), and then diluted in the assay to begin with the indicated concentration. All cell culture material was obtained from Cambrex BioScience (Copenhagen, Denmark). All chemicals were from Sigma/Aldrich, USA, unless otherwise indicated. All experiments were repeated three times, unless otherwise indicated.” left out
(§2) Cytotoxicity of tested samples was measured against different cancer cells using the MTT Cell Viability Assay. […] The extent of the reduction of MTT was quantified by measuring the absorbance at 570 nm. […]
(§3) Cells (0.5×10^5 cells/well), in serum-free media, were plated in a flat bottom 96-well microplate, and treated with 20 μl of different concentrations of the tested samples for 48 h at 37° C., in a humidified 5% CO2 atmosphere. […] MTT crystals were solubilized by adding 180 μl of acidified isopropanol/well and plates were kept at room temperature, followed by photometric determination of the absorbance at 570 nm using a microplate ELISA reader. […]

[3] = system: normal human alveolar basal epithelial cell line (A-549); test: MTT cell viability assay, A-549; assay type: cell-based; conditions: A-549 versus HCT116
Method: as §1, with “Tested samples were dissolved in dimethyl sulphoxide (DMSO), and then diluted in the assay to begin with the indicated concentration. All cell culture material was obtained from Cambrex BioScience (Copenhagen, Denmark). All chemicals were from Sigma/Aldrich, USA, unless otherwise indicated. All experiments were repeated three times, unless otherwise indicated.” left out
as §2, §3

[4] = Homo sapiens, HCT-116, 48 h treatment, read-out: IC50 against the colon cancer cell line HCT 116

SMILES | IC50 [1, 4] [nM] | further results
Cc1ccc(NN=C(C=O)C(=O)c2ccc(C(=O)/C(C=O)=N/Nc3ccc(C)cc3)cc2)cc1 [Compound 9a] | – | IC50 ([1]; 48 h treatment, read-out: IC50 against the colon cancer cell line HCT 116): 126 nM
N#Cc1ccccc1N/N=C(/C=O)C(=O)c1ccc(C(=O)/C(C=O)=N/Nc2ccccc2C#N)cc1 [Compound 9b, 2-(2-((E)-1-(4-((Z)-2-(2-(2-cyanophenyl)hydrazineylidene)-3-oxopropanoyl)phenyl)-1,3-dioxopropan-2-ylidene)hydrazineyl)benzonitrile] | 299 | –
Cc1ccc(N/N=C(\C=O)C(=O)c2cccc(C(=O)/C(C=O)=N/Nc3ccc(C)cc3)n2)cc1 [Compound 11a, (2E,2′E)-3,3′-(pyridine-2,6-diyl)bis(3-oxo-2-(2-(p-tolyl)hydrazineylidene)propanal)] | 277 | –
N#Cc1ccccc1N/N=C(\C=O)C(=O)c1cccc(C(=O)/C(C=O)=N/Nc2ccccc2C#N)n1 [Compound 11b, 2,2′-(((2E,2′E)-pyridine-2,6-diylbis(1,3-dioxopropan-1-yl-2-ylidene))bis(hydrazin-1-yl-2-ylidene))dibenzonitrile] | 98 | Cytotoxic effects on the normal, non-tumorigenic A-549 cell line [2]: only weak cytotoxic effects; Selectivity index [3]: excellent selectivity index; IC50 ([1]; Homo sapiens, HCT-116, 48 h treatment, read-out: IC50 for HCT116 cancer cells): 98 ± 30 nM
COc1cccc2c1C(=O)c1c(O)c3c(c(O)c1C2=O)C[C@@](O)(C(=O)CO)C[C@@H]3O[C@H]1C[C@H](N)[C@H](O)[C@H](C)O1 [Doxorubicin, reference compound] | 126 | –
